Laboratory results: patent US20250204528A1, “USE OF 2-AMINO-3-INDOLYL BUTYRIC ACID OR 3-METHYLPYRROLIDINE-2-CARBOXYLIC ACID AS PLANT IMMUNITY ELICITOR” (NANJING TIANNONG BIOTECHNOLOGY CO., LTD, priority 2021, published 2025)

Columns and labels:
Assay type in all cases: in vivo
"Sikang 1" cotton = assay: Cotton under salt stress (100 mM NaCl); conditions: 100 mM NaCl three days; for Mortality (%): cotton plants
Procedure: An experimental material was “Sikang 1” cotton which was hydroponic in a 500-mL plastic cup, and a ½ Hoagland nutrient solution was replaced every other two days. When the cotton seedling grew until the second true leaves were completely unfolded, a 2-amino-3-indolyl butyric acid solution was sprayed on the leaf surfaces. Concentrations at 0 nm, 1 nm, 10 nm, 100 nm and 1,000 nm were set in the experiment. Meanwhile, 0.02% Tween 20 was added as a surfactant. The solution was sprayed every 24 h for 2 times and NaCl was added into a ½ Hoagland nutrient solution the next day after the treatment to make the final concentration of 100 mM to perform a salt stress treatment. Each treatment was performed in three replicates. A rehydration treatment was performed after three days of the salt stress. The salt damage symptoms of the cotton were observed and a salt damage index was calculated by using a calculation formula as follows.

hydroponic wheat = assay: Wheat under drought stress (25% PEG-6000); conditions: for Drought damage index (%) / Dry weight(g) Overground part / Dry weight(g) Underground part / Fresh weight (g) Overground part / Fresh weight (g) Underground part / Root length (cm): 25% PEG-6000 6 d, recovery 7 d; for Drought damage index reduced by / Fresh weight of the overground part improved by / Fresh weight of the underground part improved by / Root length of the wheat seedlings increased by: compared with the control group
Procedure: A 6-mesh sieve was used as a container to hydroponic wheat, 50 grains were sieved each time, a ½ Hoagland nutrient solution was replaced every other two days, a 2-amino-3-indolyl butyric acid solution was sprayed on the leaf surfaces when the wheat grew to a stage of two true leaves and one terminal bud, wherein the concentrations of 2-amino-3-indolyl butyric acid were 0 nm, 100 nm and 1,000 nm, and meanwhile, 0.02% of Tween-20 was added as a surfactant. After continuously spraying for two days, on the third day, the hydroponic nutrient solution was replaced with a ½ Hoagland nutrient solution containing 25% PEG-6000 to perform a stress treatment, a rehydration treatment was performed after the drought stress for 6 d, the wheat recovered to grow for 7 d in a normal nutrient solution, a drought damage index was observed and determined, and the root length and biomass were determined.
The performance characteristics of the leaves subjected to the drought damage were similar to those of the leaves subjected to a salt damage. The drought damage rate and the drought damage index were introduced by using the evaluation index of the salt damage, a drought damage index formula was as follows, and the drought damage grading standard was shown in table 16.

Arabidopsis thaliana = Arabidopsis thaliana under high temperature stress; design: Heat damage index: scale not given here; conditions: for Heat damage index: 45° C. 12 h, recovery 7 d; for PIABS: photosynthetic performance index after 45° C. 12 h; for Heat damage index reduced by: vs control group
Procedure: Arabidopsis thaliana seeds were sown in a pot with the diameter of 8.5 cm according to about 50 seeds per pot and planted in a greenhouse at 25° C. with the humidity of 60%-70% and the light intensity of 100 μmolm^−2s^−1 (16 h light/8 h dark). The treatment was started when the Arabidopsis thaliana normally grew for 21 d. Concentrations at 0 nm, 1 nm, 10 nm, 100 nm and 1,000 nm were set in the experiment. Meanwhile, 0.02% Tween 20 was added as a surfactant and four replicates were set. The spraying treatment was the same as that of the ryegrass in example 5. 24 h after the second spraying, the Arabidopsis thaliana was transferred to an illumination incubator at 45° C. for a high temperature stress treatment for 12 h. The chlorophyll fluorescences of the Arabidopsis thaliana leaf wafers were measured by using the plant efficiency Handy-PEA. The plants were taken out and transferred to the greenhouse at 25° C. for recovery for 7 d. The damage conditions of the plants were observed and counted, and the heat damage grades were calculated.

Compound | Salt damage index (%) ("Sikang 1" cotton; 1 nm) | Mortality (%) ("Sikang 1" cotton; 1 nm) | Salt damage index (%) ("Sikang 1" cotton; 10 nm) | Mortality (%) ("Sikang 1" cotton; 10 nm) | Salt damage index (%) ("Sikang 1" cotton; 100 nm) | Mortality (%) ("Sikang 1" cotton; 100 nm) | Salt damage index (%) ("Sikang 1" cotton; 1,000 nm) | Mortality (%) ("Sikang 1" cotton; 1,000 nm) | Drought damage index (%) (hydroponic wheat; 100 nm) | Dry weight(g) Overground part (hydroponic wheat; 100 nm) | Dry weight(g) Underground part (hydroponic wheat; 100 nm) | Fresh weight (g) Overground part (hydroponic wheat; 100 nm) | Fresh weight (g) Underground part (hydroponic wheat; 100 nm) | Root length (cm) (hydroponic wheat; 100 nm) | Drought damage index (%) (hydroponic wheat; 1,000 nm) | Dry weight(g) Overground part (hydroponic wheat; 1,000 nm) | Dry weight(g) Underground part (hydroponic wheat; 1,000 nm) | Fresh weight (g) Overground part (hydroponic wheat; 1,000 nm) | Fresh weight (g) Underground part (hydroponic wheat; 1,000 nm) | Root length (cm) (hydroponic wheat; 1,000 nm) | also measured
CC(c1c[nH]c2ccccc12)C(N)C(=O)O (centres unmarked) | 63% | 45% | 57% | 43% | 53% | 33% | 44% | 27% | 44% | 0.82 ± 0.01b g | 0.35 ± 0.01a g | 7.28 ± 0.05b g | 3.66 ± 0.01b g | 13.97 ± 0.03a cm | 24% | 0.90 ± 0.05a g | 0.38 ± 0.01a g | 8.87 ± 0.09a g | 4.51 ± 0.02a g | 14.60 ± 0.01a cm | Drought damage index reduced by (hydroponic wheat; 1,000 nm): 44%; Fresh weight of the overground part improved by (hydroponic wheat; 1,000 nm): 44.93%; Fresh weight of the underground part improved by (hydroponic wheat; 1,000 nm): 54.98%; Root length of the wheat seedlings increased by (hydroponic wheat; 1,000 nm): 10.86%; Heat damage index (Arabidopsis thaliana; 1 nm): 58; PIABS (Arabidopsis thaliana; 1 nm): 0.90 ± 0.04e; Heat damage index (Arabidopsis thaliana; 10 nm): 46; PIABS (Arabidopsis thaliana; 10 nm): 1.14 ± 0.15 days; Heat damage index (Arabidopsis thaliana; 100 nm): 33; PIABS (Arabidopsis thaliana; 100 nm): 3.28 ± 0.20c; PIABS increased by (times) compared with the control group (Arabidopsis thaliana; 1,000 nm): 20 times; Heat damage index (Arabidopsis thaliana; 1,000 nm): 10; PIABS (Arabidopsis thaliana; 1,000 nm): 7.13 ± 0.23b; Heat damage index reduced by (Arabidopsis thaliana; 1,000 nm): 65%
CC1CCNC1C(=O)O (centres unmarked) [3-methylpyrrolidine-2-carboxylic acid] | 67% | 47% | 54% | 42% | 49% | 28% | 39% | 24% | 39% | 0.98 ± 0.07b g | 0.47 ± 0.05b g | 7.83 ± 0.10b g | 3.85 ± 0.05b g | 14.50 ± 0.21b cm | 20% | 1.11 ± 0.06a g | 0.55 ± 0.03a g | 9.12 ± 0.13a g | 4.67 ± 0.11a g | 15.03 ± 0.31a cm | Drought damage index reduced by (hydroponic wheat; 1,000 nm): 61%; Fresh weight of the overground part improved by (hydroponic wheat; 1,000 nm): 44.08%; Fresh weight of the underground part improved by (hydroponic wheat; 1,000 nm): 36.55%; Root length of the wheat seedlings increased by (hydroponic wheat; 1,000 nm): 12.58%; Heat damage index (Arabidopsis thaliana; 1 nm): 48; PIABS (Arabidopsis thaliana; 1 nm): 1.87 ± 0.03e; Heat damage index (Arabidopsis thaliana; 10 nm): 37; PIABS (Arabidopsis thaliana; 10 nm): 4.06 ± 0.17 days; Heat damage index (Arabidopsis thaliana; 100 nm): 30; PIABS (Arabidopsis thaliana; 100 nm): 6.53 ± 0.23c; PIABS increased by (times) compared with the control group (Arabidopsis thaliana; 1,000 nm): 23 times; Heat damage index (Arabidopsis thaliana; 1,000 nm): 8; PIABS (Arabidopsis thaliana; 1,000 nm): 10.26 ± 0.46b; Heat damage index reduced by (Arabidopsis thaliana; 1,000 nm): 68%
